Laboratory results reported in patent US4994477A, “Heterocyclic renin inhibitors” (Abbott Laboratories, priority 1988, dated 1991).

Target: T1, human renal renin (Homo sapiens, UniProt P00797)
T1 construct: human renal renin, free from acid proteolytic activity; from tissue; host or cells: human kidney (from the word 'renal')
T1 sequence (P00797 67-406): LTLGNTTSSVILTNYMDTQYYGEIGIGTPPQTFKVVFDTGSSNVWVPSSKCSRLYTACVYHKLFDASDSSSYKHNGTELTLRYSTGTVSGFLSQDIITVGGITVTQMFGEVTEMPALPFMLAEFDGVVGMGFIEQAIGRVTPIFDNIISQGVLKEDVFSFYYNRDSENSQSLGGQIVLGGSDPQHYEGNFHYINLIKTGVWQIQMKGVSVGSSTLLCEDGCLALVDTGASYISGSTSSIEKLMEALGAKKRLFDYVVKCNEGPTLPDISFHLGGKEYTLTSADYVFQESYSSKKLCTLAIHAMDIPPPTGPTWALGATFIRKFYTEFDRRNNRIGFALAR
Experiment: inhibition of human renal renin in vitro, angiotensin I formed measured by radioimmunoassay
Assay type: biochemical
Settings: human angiotensinogen substrate, 37 degrees C, pH 6.0
Method: At the end of the incubation, the amount of angiotensin I formed is measured by radioimmunoassay and the molar concentration required to cause 50% inhibition, expressed as the IC50, is calculated.

IC50 | Compound
3.3 nM | CC(C)C[C@H](O)[C@H](O)[C@H](CC1CCCCC1)NC(=O)[C@H](Cc1c[nH]cn1)NC(=O)c1cc2ccccc2[nH]1 [Example 35, N-(Indolyl-2-carbonyl)-His Amide of 2(S)-Amino-1-cyclohexyl-3(R),4'(S)-dihydroxy-6-methylheptane]
15 nM | CCCC[C@H](NC(=O)c1cc2ccccc2[nH]1)C(=O)N[C@@H](CC1CCCCC1)[C@@H](O)[C@@H](O)CC(C)C [Example 40, N-(Indolyl-2-carbonyl)-Nle Amide of 2(S)-Amino-1-cyclohexyl-3(R),4(S)-dihydroxy-6-methylheptane]
66 nM | CCCC[C@@H](C(=O)N[C@@H](CC1CCCCC1)[C@@H](O)[C@@H](O)CC(C)C)N1CCc2c([nH]c3ccccc23)C1=O [Example 96]

Further lines, the molecule ahead of its results:

Compound | IC50
CC(C)C[C@H](O)[C@H](O)[C@H](CC1CCCCC1)NC(=O)[C@H](Cc1c[nH]cn1)NC(=O)c1cc2ccccc2o1 [Example 43, N-(Benzofuranyl-2-carbonyl)-His Amide of 2(S)-Amino-1-cyclohexyl-3(R),4(S)-dihydroxy-6-methylheptane] | 10 nM
CC(C)C[C@H](O)[C@H](O)[C@H](CC1CCCCC1)NC(=O)[C@H](Cc1c[nH]cn1)NC(=O)c1ccc2ccccc2c1 [Example 151, N-(2-Napthoyl)-His Amide of 2(S)-Amino-1-cyclohexyl-3(R),4(S)-dihydroxy-6-methylheptane] | 32 nM
CCN1C[C@@H]([C@H](O)[C@H](CC2CCCCC2)NC(=O)C(Cc2cc[nH]n2)N2Cc3c([nH]c4ccccc34)C2=O)OC1=O (stereo partly drawn) [Example 89, (1'RS,2"S,3"R,5"'S)-2-[1-[N-[1-Cyclohexyl-3-hydroxy-3-(3-ethyloxazolidin-2-on-5-yl)-2-propyl]carbamoyl]-2-(3-pyrazolyl)ethyl]-1,2,3,4-tetrahydropyrrolo[3,4-b]indol-3-one] | 89 nM
CC(C)C[C@H](O)[C@H](O)[C@H](CC1CCCCC1)NC(=O)[C@H](Cc1cc[nH]n1)N1Cc2c([nH]c3ccccc23)C1=O [Example 87, (1'S,2"S,3"R,4"S)-2-[1-[N-(1-Cyclohexyl-3,4-dihydroxy-6-methyl-2-heptyl)carbamoyl]-2-(3-pyrazolyl)ethyl]-1,2,3,4-tetrahydropyrrolo[3,4-b]indol-3-one] | 9.5 nM
CCN1C[C@@H]([C@H](O)[C@H](CC2CCCCC2)NC(=O)[C@H](Cc2c[nH]cn2)NC(=O)c2ccc3ccccc3n2)OC1=O [Example 109, N-(Quinolinyl-2-carbonyl)-His Amide of (2'S,1'R,5S)-3-Ethyl-5-(1-hydroxy-2-amino-3-cyclohexylpropyl)oxazolidin-2-one] | 36 nM
